Among the test systems are BT-549 breast; CCRF-CEM leukemia; DLD-1 colon; DMS 114 small cell lung; DMS 273 small cell lung; LXFL 529 NSCLC; M19-MEL melanoma; T-47D breast; TK-10 renal; NCI/ADR-RES ovarian.
What all share (assay): DTP human tumour cell line panel, 48 h

SMILES strings stand for the structures.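 Assay format: 96-well plates, 48-hour exposure. Here, GI50 denotes the concentration required for 50% inhibition of growth. TGI: total growth inhibition.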

For `N#C/C(=C\c1ccc2ccccc2c1)C(=O)c1ccccc1`, the concentration for total growth inhibition (TGI) – broadly, the concentration at which net growth stops – was more than 100 µM in the assay with BT-549 breast; 63.7 µM in the assay on CCRF-CEM leukemia; more than 100 µM in the assay with DLD-1 colon; more than 100 µM with DMS 114 small cell lung; more than 100 µM with DMS 273 small cell lung; more than 100 µM in the assay with LXFL 529 NSCLC. Also, the total growth inhibition concentration (TGI) in the assay on M19-MEL melanoma, with T-47D breast and with TK-10 renal was more than 100 µM each time.
Consider `COC(=O)/C(=N\NC(N)=S)C(C(=O)OC)C(=O)C(=O)Nc1ccc(C)cc1` (stereo unspecified), for which the total growth inhibition concentration (TGI) in the assay with CCRF-CEM leukemia, in the assay on DLD-1 colon, in the assay with DMS 114 small cell lung, in the assay on DMS 273 small cell lung, in the assay with LXFL 529 NSCLC and in the assay with M19-MEL melanoma was more than 100 µM throughout. Moreover, the concentration for total growth inhibition (TGI) in the assay with TK-10 renal was more than 100 µM.
Take `CCOC(=O)c1ccc(/C(C)=N/NC(N)=S)cc1`: the total growth inhibition concentration (TGI) in the assay on CCRF-CEM leukemia, with DLD-1 colon, in the assay with DMS 114 small cell lung, in the assay on DMS 273 small cell lung, with LXFL 529 NSCLC and in the assay with M19-MEL melanoma was more than 100 µM in each case. This compound also yielded a concentration for total growth inhibition (TGI) with TK-10 renal of more than 100 µM.
As to `COC(=O)/C(C#N)=C1\N=NNN1c1ccc(OC)cc1`, the TGI in the assay with CCRF-CEM leukemia, in the assay with DLD-1 colon, in the assay on DMS 114 small cell lung, in the assay with DMS 273 small cell lung, in the assay with LXFL 529 NSCLC and in the assay on M19-MEL melanoma was more than 100 µM throughout. The compound also yielded a TGI in the assay on TK-10 renal of more than 100 µM.
In the case of `O=[N+]([O-])c1ccc2occ3c2c1CCC3`, the TGI with CCRF-CEM leukemia, with DLD-1 colon, in the assay on DMS 114 small cell lung, in the assay on DMS 273 small cell lung, with LXFL 529 NSCLC and with M19-MEL melanoma was more than 100 µM in each case. Moreover, the concentration for total growth inhibition (TGI) with TK-10 renal is more than 100 µM.
In the case of `O=C(Nc1cccc(Cl)c1)C(=O)C(C(=O)c1ccc2ccccc2c1)C1OC(=O)c2ccccc21` (stereo unspecified), the TGI is 52.4 µM in the assay with CCRF-CEM leukemia; 32.7 µM in the assay on DLD-1 colon; 79.3 µM with DMS 114 small cell lung; 89.6 µM in the assay with DMS 273 small cell lung; 21.9 µM in the assay on LXFL 529 NSCLC; 39.1 µM with M19-MEL melanoma. The same compound gave a total growth inhibition concentration (TGI) in the assay with TK-10 renal of 77.4 µM.
In the case of `O=C(OC1CCC(=C2SCCCS2)[C@H]1C1SCCCS1)c1ccccc1` (stereo partly specified), the total growth inhibition concentration (TGI) with CCRF-CEM leukemia, in the assay with DLD-1 colon, with DMS 114 small cell lung, in the assay on DMS 273 small cell lung, in the assay on LXFL 529 NSCLC and with M19-MEL melanoma was more than 100 µM in each case. Further, the TGI with TK-10 renal is more than 100 µM.
Turning to `Cc1nc(Nc2ccc(Cl)cc2)sc1C(=O)NNC(=S)NN`, the concentration for total growth inhibition (TGI) in the assay with CCRF-CEM leukemia is 88.5 µM; in the assay on DLD-1 colon it was 30.7 µM; in the assay on DMS 114 small cell lung it was 39 µM; in the assay with DMS 273 small cell lung it was 36.2 µM; in the assay with LXFL 529 NSCLC, 36.4 µM; in the assay with M19-MEL melanoma, 40.7 µM. Moreover, the TGI in the assay with TK-10 renal was 45.1 µM.
Consider `CC(C)(C)c1cc(C(P(=O)(O)O)P(=O)(O)O)cc(C(C)(C)C)c1O`, for which the TGI in the assay on CCRF-CEM leukemia, in the assay with DLD-1 colon, in the assay with DMS 114 small cell lung, with DMS 273 small cell lung, in the assay on LXFL 529 NSCLC and with M19-MEL melanoma was more than 100 µM throughout. In the assay on TK-10 renal, this compound returned a concentration for total growth inhibition (TGI) of more than 100 µM.
`COc1ccc(OCC(=O)O)c2c1CCCC2=O`: the concentration for total growth inhibition (TGI) in the assay with CCRF-CEM leukemia, in the assay on DLD-1 colon, in the assay with DMS 114 small cell lung, with DMS 273 small cell lung, in the assay with LXFL 529 NSCLC and with M19-MEL melanoma was more than 100 µM in each case. In addition, the TGI in the assay on TK-10 renal was more than 100 µM.
`COC(=O)C1CCCC2(C1)OCCO2` (stereo unspecified): the TGI in the assay with CCRF-CEM leukemia, in the assay on DLD-1 colon, in the assay on DMS 114 small cell lung, in the assay on DMS 273 small cell lung, with LXFL 529 NSCLC and with M19-MEL melanoma was more than 100 µM in each case. For the same compound, the TGI in the assay on TK-10 renal was more than 100 µM.
`CCC[CH2][Sn]([CH2]CCC)([O]C(=O)c1ccc(OC)c(OC)c1OC)[O][Sn]([CH2]CCC)([CH2]CCC)[O]C(=O)c1ccc(OC)c(OC)c1OC`: the GI50 (commonly the concentration giving 50% growth inhibition) with BT-549 breast was 0.241 µM; in the assay with CCRF-CEM leukemia it was 0.0133 µM; with DLD-1 colon, 0.147 µM; in the assay on DMS 114 small cell lung, 0.0281 µM; in the assay with DMS 273 small cell lung it was 0.334 µM; in the assay with LXFL 529 NSCLC, 0.02 µM. The GI50 in the assay on M19-MEL melanoma is 0.21 µM; with NCI/ADR-RES ovarian, 0.843 µM; with T-47D breast it was 0.0311 µM; in the assay with TK-10 renal it was 0.306 µM. In addition, the TGI in the assay with BT-549 breast is 1.15 µM; in the assay on CCRF-CEM leukemia, 0.161 µM; in the assay with DLD-1 colon, 0.419 µM; in the assay with DMS 114 small cell lung, 0.171 µM; in the assay on DMS 273 small cell lung, 1.54 µM; in the assay on LXFL 529 NSCLC, 0.0938 µM. Besides, the total growth inhibition concentration (TGI) with M19-MEL melanoma came out at 1.05 µM; in the assay on NCI/ADR-RES ovarian, 2.14 µM; with T-47D breast, 0.295 µM; in the assay on TK-10 renal, 0.716 µM.
Regarding `Cc1ccc2nc(/C(=C/c3ccc(/C=C(\NC(=O)c4ccccc4)c4nc5ccc(C)cc5[nH]4)c(C)c3)NC(=O)c3ccccc3)[nH]c2c1`, the TGI is 41.9 µM with CCRF-CEM leukemia; more than 100 µM with DLD-1 colon; 69.6 µM in the assay on DMS 114 small cell lung; more than 100 µM in the assay on DMS 273 small cell lung; 12.2 µM with LXFL 529 NSCLC; 44.8 µM in the assay on M19-MEL melanoma. Besides, in the assay on TK-10 renal, the total growth inhibition concentration (TGI) is 88 µM.

The record behind these values is PubChem BioAssay (NCI).
